Experimental data taken from the NIST ThermoML archive (doi:10.1016/j.tca.2012.01.013).
Numbers after ± are expanded uncertainties.

Assay: xn = mol fraction of the nth substance listed
Conditions: 101 kPa, Liquid, Vibrating tube method

COC(=O)c1ccccc1C(=O)OC [dimethyl 1,2-benzenedicarboxylate] + CCC(C)O
mass density [kg/m3]
Conditions	x1 = 0.1002	x1 = 0.2014	x1 = 0.3002	x1 = 0.4001	x1 = 0.5002	x1 = 0.5991	x1 = 0.6993	x1 = 0.7996	x1 = 0.9015	x1 = 1
288.15 K	874.348 ± 0.26	929.895 ± 0.25	977.298 ± 0.25	1019.6 ± 0.26	1057.27 ± 0.29	1090.58 ± 0.31	1120.97 ± 0.34	1148.47 ± 0.36	1173.86 ± 0.38	1196.26 ± 0.39
293.15 K	870.052 ± 0.27	925.438 ± 0.26	972.737 ± 0.25	1014.97 ± 0.26	1052.6 ± 0.28	1085.88 ± 0.31	1116.26 ± 0.33	1143.78 ± 0.35	1169.18 ± 0.38	1191.59 ± 0.39
298.15 K	865.694 ± 0.27	920.934 ± 0.26	968.144 ± 0.25	1010.32 ± 0.26	1047.9 ± 0.28	1081.18 ± 0.31	1111.56 ± 0.33	1139.08 ± 0.35	1164.51 ± 0.37	1186.93 ± 0.39
303.15 K	861.267 ± 0.27	916.383 ± 0.26	963.512 ± 0.25	1005.63 ± 0.25	1043.19 ± 0.28	1076.45 ± 0.3	1106.84 ± 0.33	1134.39 ± 0.35	1159.83 ± 0.37	1182.28 ± 0.38
308.15 K	856.794 ± 0.27	911.783 ± 0.26	958.844 ± 0.25	1000.92 ± 0.25	1038.47 ± 0.28	1071.73 ± 0.3	1102.13 ± 0.32	1129.69 ± 0.34	1155.16 ± 0.36	1177.62 ± 0.38
313.15 K	852.235 ± 0.26	907.129 ± 0.25	954.133 ± 0.25	996.185 ± 0.24	1033.72 ± 0.27	1066.99 ± 0.29	1097.4 ± 0.31	1124.99 ± 0.34	1150.49 ± 0.36	1172.97 ± 0.37
318.15 K	847.597 ± 0.26	902.417 ± 0.26	949.381 ± 0.25	991.415 ± 0.24	1028.95 ± 0.26	1062.23 ± 0.29	1092.67 ± 0.31	1120.3 ± 0.33	1145.82 ± 0.35	1168.32 ± 0.37
323.15 K	842.887 ± 0.28	897.649 ± 0.27	944.587 ± 0.26	986.618 ± 0.25	1024.16 ± 0.27	1057.47 ± 0.29	1087.94 ± 0.31	1115.59 ± 0.33	1141.14 ± 0.35	1163.67 ± 0.37
